Assay results as given in PubChem BioAssay (NCI).
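Protocol summary: plate cells (96-well), add compound at 5 concentrations, incubate 48 h, interpolate endpoints linearly. Abbreviation: GI50, concentration required for 50% inhibition of growth. The concentration for full growth arrest is given as TGI.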

Legend:
Experiment in all cases: inhibition of tumour cell growth, NCI panel, 48 h
KM12 colon = test system: KM12 colon
HCC-2998 colon = test system: HCC-2998 colon
SF-295 CNS = test system: SF-295 CNS
NCI-H460 lung = test system: NCI-H460 lung
NCI-H23 lung = test system: NCI-H23 lung
UACC-62 melanoma = test system: UACC-62 melanoma
LOX IMVI melanoma = test system: LOX IMVI melanoma
OVCAR-3 ovarian = test system: OVCAR-3 ovarian
MDA-MB-435 = test system: MDA-MB-435
SR leukemia = test system: SR leukemia

Compound	TGI (KM12 colon) [µM]	TGI (HCC-2998 colon) [µM]	TGI (SF-295 CNS) [µM]	TGI (NCI-H460 lung) [µM]	TGI (NCI-H23 lung) [µM]	TGI (UACC-62 melanoma) [µM]	TGI (LOX IMVI melanoma) [µM]	TGI (OVCAR-3 ovarian) [µM]	GI50 (KM12 colon) [µM]	GI50 (MDA-MB-435) [µM]	TGI (MDA-MB-435) [µM]	GI50 (HCC-2998 colon) [µM]	GI50 (SF-295 CNS) [µM]	GI50 (NCI-H460 lung) [µM]	GI50 (NCI-H23 lung) [µM]	GI50 (UACC-62 melanoma) [µM]	GI50 (LOX IMVI melanoma) [µM]	GI50 (OVCAR-3 ovarian) [µM]	TGI (SR leukemia) [µM]	GI50 (SR leukemia) [µM]
N#C/C(=C\c1ccc(C(O)P(=O)(O)O)cc1)C(N)=O (stereo not given)	> 100	> 100	> 100	> 100	> 100	> 100	> 100	> 100	–	–	–	–	–	–	–	–	–	–	–	–
Cn1cnc([N+](=O)[O-])c1Sc1nnnn1-c1ccccc1	35.2	32.5	39.7	33.5	34.7	27.4	19.1	26.6	–	–	–	–	–	–	–	–	–	–	–	–
COc1ccc(N(/C=C/C(=O)C(F)(F)F)CC(=O)c2ccc(Cl)c(Cl)c2)cc1	37.3	32.5	28.6	27.3	32.3	22.8	27.4	29.3	11.6	12.1	25.4	18.5	14.5	6.73	17.5	8.75	11.8	15.6	–	–
N#Cc1c(N)nc(N2CCOCC2)c(C#N)c1-c1ccccc1Cl	–	> 100	> 100	> 100	> 100	> 100	> 100	87.1	–	80.2	> 100	49.8	38.5	26.8	37.7	18.9	56	17.3	–	–
S=c1nc(N2CCCCC2)ss1	33.9	30	81.4	80.5	> 100	35.4	–	–	–	–	–	–	–	–	–	–	–	–	45.4	–
O=C(COc1cccc(/C=C2\CSc3ccccc3C2=O)c1)c1ccc(Cl)cc1	2.75	2.8	3.44	8.38	4.15	3.24	2.73	3.51	1.29	1.64	3.44	1.47	1.71	2.88	1.92	1.65	1.39	1.8	–	–
O=c1c2cccnc2ncn1CCN1CCCC1	> 100	> 100	> 100	> 100	> 100	> 100	> 100	> 100	–	–	–	–	–	–	–	–	–	–	> 100	–
NNC(=O)/C(NC(=O)c1ccccc1)=C(\N)c1ccc(Cl)cc1	> 100	> 100	> 100	> 100	> 100	> 100	> 100	> 100	–	–	–	–	–	–	–	–	–	–	> 100	–
CC1(O)CCC2(C#N)CCC1C2O (stereo not given)	> 100	> 100	> 100	> 100	–	> 100	41.9	> 100	–	–	–	–	–	–	–	–	–	–	45.4	–
Cc1c2c(cc3c(=O)ccn(CCN(C)C)c13)c(=O)ccn2CCN(C)C	13.9	20.3	25.4	14.1	33.9	31.6	25.3	34.9	–	–	–	–	–	–	–	–	–	–	37.6	–
OCC(O)C(O)C(O)/C=N/Nc1nc2ccccc2nc1-c1ccccc1 (stereo not given)	> 100	> 100	> 100	> 100	> 100	> 100	> 100	> 100	> 100	> 100	> 100	91.2	> 100	70.3	> 100	67.3	72.2	46	–	–
COc1cc2c(c(OC)c1OC)-c1ccc(OC)c(=O)cc1[C@@H](N(C)C=O)CC2	0.747	> 100	0.0365	–	> 100	> 100	> 100	0.047	–	–	–	–	–	–	–	–	–	–	–	–
O=C1CCS/C(=N\S(=O)(=O)c2ccc(N3N=C4c5ccccc5CC4C3c3cccs3)cc2)N1C(=O)c1ccccc1 (stereo not given)	83.1	32.1	> 100	> 100	41.5	28	23.8	67.1	29.4	22.7	53.4	18.2	32.7	26.6	17.2	6.37	7.61	27.4	–	–
CCOC(=O)/C(=C\c1ccc[nH]1)C(=O)c1ccccc1	> 100	> 100	> 100	> 100	> 100	> 100	> 100	> 100	–	–	–	–	–	–	–	–	–	–	> 100	–
CCC(C(=O)c1ccccc1)C(CCCC(=O)Nc1c(C)cccc1C)N=O (stereo not given)	> 100	> 100	> 100	> 100	> 100	> 100	–	> 100	–	–	–	–	–	–	–	–	–	–	> 100	–
C1COCCOCCOCCOCCO1.CC(=O)[CH-]C(C)=O.CC(=O)[CH-]C(C)=O.CC(=O)[CH-]C(C)=O.[V]	37	40.1	22	99.4	31.6	17.4	29.6	32.3	16.8	–	–	19.6	7.9	22.7	15.6	4.25	15.1	13.7	–	–
CC(C)C(=O)/C=C/c1ccc(Cl)c(Cl)c1	29	33.2	29.4	48	36.5	34.9	–	27.6	–	–	–	–	–	–	–	–	–	–	56.8	–
N#CC1CC2(C(=O)C1=O)c1ccccc1-c1ccccc12 (stereo not given)	> 100	> 100	> 100	> 100	> 100	> 100	> 100	> 100	–	–	–	–	–	–	–	–	–	–	> 100	–
Cc1cc2cn3c4cccnc4[nH]c(=O)c3c2cc1C	2.56	2.92	3.26	–	2.74	2.78	2.99	3.22	1.15	–	–	1.5	1.51	–	1.37	1.38	1.47	1.77	–	–
CC/C=C/c1cc2cc[nH]c2c2c1C(C)C[C@@H]2C (stereo not given in full)	40.8	–	55.9	65.3	58.6	41.8	31	40.5	–	–	–	–	–	–	–	–	–	–	–	–

Compound	TGI (KM12 colon) [µM]	TGI (HCC-2998 colon) [µM]	TGI (SF-295 CNS) [µM]	TGI (NCI-H460 lung) [µM]	TGI (NCI-H23 lung) [µM]	TGI (UACC-62 melanoma) [µM]	TGI (LOX IMVI melanoma) [µM]	TGI (OVCAR-3 ovarian) [µM]	GI50 (KM12 colon) [µM]	GI50 (MDA-MB-435) [µM]	TGI (MDA-MB-435) [µM]	GI50 (HCC-2998 colon) [µM]	GI50 (SF-295 CNS) [µM]	GI50 (NCI-H460 lung) [µM]	GI50 (NCI-H23 lung) [µM]	GI50 (UACC-62 melanoma) [µM]	GI50 (LOX IMVI melanoma) [µM]	GI50 (OVCAR-3 ovarian) [µM]	TGI (SR leukemia) [µM]	GI50 (SR leukemia) [µM]
C=CCn1cc(C(=O)NC(=O)NCCCCCOC(=O)CCCCCCCCCCC(=O)OCCCCCNC(=O)NC(=O)c2cn(CC=C)c(=O)n(C)c2=O)c(=O)n(C)c1=O	> 100	> 100	–	> 100	> 100	> 100	> 100	> 100	–	–	–	–	–	–	–	–	–	–	–	–
c1ccc(COC2(OCc3ccccc3)CC3OC2C2NN=NC32)cc1 (stereo not given)	80.7	> 10	62.4	> 100	34.3	46.6	36.5	33.8	–	–	–	–	–	–	–	–	–	–	–	–
COc1cc2c(cc1OCCCCOc1ccc(-c3nc4ccccc4s3)cc1)N=C[C@@H]1CCCN1C2=O	–	2.28	8.81	4.06	3.56	2.69	1.96	3.47	–	–	–	0.82	1.22	1.56	1.15	1.14	0.73	0.477	1.12	0.276
O=[N+]([O-])c1ccc2nc3ccccc3cc2c1	–	3.12	–	> 100	6.22	6.27	6.91	1.3	–	–	3.76	–	–	–	–	–	–	–	–	–
COC1=C(Br)C(=O)C2=C(C1=O)C1C3=C(C(=O)C=CC3=O)C2c2ccccc21 (stereo not given)	32.1	19.5	48.9	> 100	48.5	27.8	26	28.3	12.4	18.2	36.3	0.565	24.1	33.3	17.3	11.2	4.91	5.43	–	–
COc1ccc2c(c1)/C(=C/c1cc(OC)c(OC)c(OC)c1)C(=O)N2C	4.95	> 56.1	> 100	7.02	> 100	> 24	11.8	5.95	1.76	–	–	9.39	2.78	2.46	4.42	2.37	2.32	2.03	3.28	0.634
O=C(c1ccc(Cl)cc1)c1ccc(OCCSCCCCCCCCCCSCCOc2ccc(C(=O)c3ccc(Cl)cc3)cc2)cc1	> 100	> 100	> 100	> 100	> 100	> 100	> 100	> 100	–	–	–	–	–	–	–	–	–	–	–	–
C1=Nc2ccccc2C=Nc2ccccc2C=Nc2ccccc2C=Nc2ccccc21.[Cl-].[Pt+2]	–	–	–	> 100	–	87.8	> 100	–	–	–	–	–	–	25.7	–	21.1	29.9	–	–	–
Nc1ncnc2c1cnn2Cc1ccc(Cl)cc1	> 100	> 100	> 100	> 100	> 100	> 100	> 100	> 100	–	–	> 100	–	–	–	–	> 100	–	–	–	–
COC(=O)C1C(OCc2ccccc2)C2CCC1(OC)C=C2C (stereo not given)	> 100	> 100	> 100	> 100	> 100	> 100	> 100	> 100	–	–	–	–	–	–	–	–	–	–	66.6	–
CSc1ncnc2c1CCN2	> 100	> 100	> 100	–	> 100	> 100	> 100	–	> 100	–	6.04	> 100	> 100	–	> 100	> 100	> 100	> 100	–	–
Cc1[nH]nc2c1N=C(c1ccccc1Cl)c1cc([N+](=O)[O-])ccc1N2	> 13.7	> 25	–	> 25	> 25	–	> 25	0.836	0.338	–	–	14.6	0.256	0.484	5.06	–	1.92	0.145	> 25	0.11
O=c1c2ccccc2nc(-c2cccc(Cl)c2)n1NCC1(O)OCC(O)C(O)C1O (stereo not given)	> 100	–	> 100	> 100	> 100	> 100	> 100	> 100	–	–	–	–	–	–	–	–	–	–	> 100	–
CC(=O)/C=C/c1ccc(C)cc1	> 100	> 100	> 100	> 100	> 100	> 100	> 100	> 100	–	–	–	–	–	–	–	–	–	–	–	–
COc1cc(/C=C(\OC(C)=O)c2ccc3c(c2)OCO3)cc(OC)c1OC	48.7	> 100	98.6	> 100	35.4	34.2	31.3	49.2	–	–	–	> 100	–	–	–	–	–	–	> 100	–
CCSc1nnc(-c2ccc3ccccc3c2O)n1-c1ccc(Cl)cc1	> 100	> 100	> 100	> 100	> 100	> 100	> 100	> 100	> 100	–	–	> 100	4.24	3.27	> 100	4.6	5.52	29.4	> 100	3.86
Cc1ccc(Oc2ccc([N+](=O)[O-])cc2[N+](=O)[O-])c(C)c1	–	> 100	> 100	> 100	> 100	> 100	–	> 100	–	–	–	–	–	–	–	–	–	–	–	–
Clc1ccc(Nc2ccnc(NCCCNc3ccnc4cc(Cl)ccc34)n2)cc1	–	–	2.96	–	3.53	–	–	–	–	–	–	–	1.55	–	1.79	–	–	–	–	–
O=C(NCc1ccncc1)C1COc2cc(-c3cc(=O)c4ccccc4o3)ccc2O1 (stereo not given)	> 100	> 100	> 100	> 100	> 100	> 100	> 100	> 100	–	–	–	–	–	–	–	–	–	–	> 100	–
O=C(/C=C/c1ccccc1Cl)c1ccc(Cl)cc1Cl	24.1	33.1	36.3	31.6	37.9	27.6	–	31.6	–	–	–	–	–	–	–	–	–	–	–	–
